Values after ≈ are worked out from the molar mass of the structure shown. Values joined by “and” are separate entries in the source; they are usually repeats but may differ in a detail not shown here. Equal values may be shown once. Read-outs that look alike come from different tables or passages of the source.
What was measured:
HBV = assay: anti HBV activity, HepG2.117 cell line, intracellular HBV DNA by real-time PCR; format: cell-based, hepatitis B virus; details: Hepatitis B virus, 72 h; mean value; HepG2.117 cells, 3 days of treatment, intracellular HBV DNA; read-out: HBV-AVE-HepG2.117_intra_EC50
Description: The anti HBV activity was measured using the HepG2.117 cell line, a stable, inducible HBV producing cell line, which replicates HBV in the absence of doxicycline (Tet-off system). The HepG2 cell line is available from ATCC® under number HB-8065. Transfection of the HepG2 cell line can be as described in Sun and Nassal 2006 Journal of Hepatology 45 (2006) 636-645 “Stable HepG2-and Huh7-based human hepatoma cell lines for efficient regulated expression of infectious hepatitis B virus”.
For the antiviral assay, HBV replication was induced, followed by a treatment with serially diluted compound in 96-well plates. After 3 days of treatment, the antiviral activity was determined by quantification of intracellular HBV DNA using real-time PCR and an HBV specific primer set and probe.

[1] = Cytotoxicity, ATPlite cell viability; format: cell-based; details: human, mean value, HepG2 or HepG2.117 cells
Description: Cytotoxicity of the compounds was tested using HepG2 or HepG2.117 cells, incubated for 4 days in the presence of compounds. The viability of the cells was assessed using the Perkin Elmer ATPlite Luminescence Assay System.”

HT EQ solubility assay = format: physicochemical; details: read-out: HtEq Sol; for solubility thermodynamic at 24 h: stirred 24 h
Description: The assay was run in triplicate and was semi-automated using the Tecan Fluent for all liquid handling. 20 μL of 10 mM stock solution was dispensed in a 500 μL 96 well plate. DMSO was evaporated (Genevac). A stir bar and 400 μL of buffer/biorelevant media was added. The solution was stirred for 72 h (pH2 and pH7) or 24 h (FaSSIF and FeSSIF). The solution was filtered and the filtrate was quantified by UPLC/UV using a three-points calibration curve.

[2] = Pharmacokinetics assessment in mice; format: in vivo, C57BL mice; details: mouse; for clearance / AUC(0-t) / Cmax: male, C57BL, plasma; for clearance: IV (PEG400) 2.5 mg/kg
Description: The pharmacokinetic profile was evaluated in fed male C57BL mice (n=3/group). Mice were i.v. injected with test compound at 2.5 mg/kg, formulated as solution in PEG400/water (70/30), and blood samples were collected from the dorsal metatarsal vein at 0.05, 0.117, 0.333, 1, 2, 4, 7, and 24 hours into EDTA-containing microcentrifuge tubes. Test compound was administered p.o. at 10 mg/kg and 50 mg/kg, formulated as solution in PEG400, and blood samples were collected from the dorsal metatarsal vein at 0.5, 1, 2, 4, 7, 12 and 24 hours into EDTA-containing microcentrifuge tubes. The blood samples were immediately centrifuged at 4° C. and the plasma was stored at −80° C. Compound concentrations from the plasma samples were analyzed using LC-MS/MS (LCMS-8050 instrument). Individual plasma concentration-time profiles were subjected to a non-compartmental pharmacokinetic analysis (NCA) using Phoenix™ WinNonlin version 6.1. (Certara, N.J., USA).

[3] = Thermodynamic solubility assay; format: physicochemical; details: organic solvent or mixture, thermodynamic from solid; thermodynamic solubility in PEG400
Description: To x mg of compound 500 μL of solvent was added (max. conc. y mg/mL). After 24 h/72 h shaking/stirring the solutions were filtered (0.45 μm membrane) and the pH was recorded. The filtrate was diluted to a maximum conc. of 100 μg/mL (CH3CN/0.1N HCl 1/1) and the samples were quantified by LC/UV. Calibration standards were 100 μg/mL, 10 μg/mL and 1 μg/mL.

[4] = buffer pH 2, aqueous buffer, thermodynamic from solid, pH = 2, stirred 72 h
[5] = buffer pH 7, aqueous buffer, thermodynamic from solid, pH = 7, stirred 72 h
[6] = thermodynamic from solid, Fessif
[7] = thermodynamic from solid, fassif

Row | Structure (SMILES) | EC50 (HBV) | CC50 at 4 days [1] | further results
1 | Cc1c(C(=O)C(=O)NC2(c3cn[nH]n3)CC(F)(F)C2)cn(C)c1C(=O)Nc1ccc(F)c(C#N)c1 [Compound 12] | 0.01 µM | > 50 µM | solubility thermodynamic at 24 h (HT EQ solubility assay; Fessif): 41.2 µM and 25.1 µM; solubility thermodynamic at 24 h (HT EQ solubility assay; fassif): 10.2 µM and 5.4 µM
2 | Cc1c(C(=O)C(=O)NC2(c3cn[nH]n3)CC(F)(F)C2)cn(C)c1C(=O)Nc1ccc(F)c(Cl)c1 [Compound 13] | 0.003 µM | 26.8 µM | clearance [2]: 0.612 L/h/kg; AUC(0-t) ([2]; PO (PEG400) 10 mg/kg): 12.5 µg·h/mL; Cmax ([2]; PO (PEG400) 10 mg/kg): 2.48 µg/mL; F ([2]; PO (PEG400) 10 mg/kg): 77.3 +/− 19.8%; F ([2]; PO (PEG400) 50 mg/kg): 121 +/− 50%; solubility thermodynamic at 72 h (HT EQ solubility assay; [4]): 1.1 µM (≈ 0.544 µg/mL); solubility thermodynamic at 72 h (HT EQ solubility assay; [5]): < 0.6 µM; solubility thermodynamic at 24 h (HT EQ solubility assay; [6]): 150 µM (≈ 74.5 µg/mL); solubility thermodynamic at 24 h (HT EQ solubility assay; [7]): 39.8 µM (≈ 19.7 µg/mL); solubility [3]: > 36.4 mg/mL
3 | Cc1c(C(=O)C(=O)NC2(c3c[nH]nn3)CC(F)(F)C2)c(C)n(C)c1C(=O)Nc1ccc(F)c(C#N)c1 [Compound 28] | 0.008 µM | > 50 µM | clearance [2]: 4.4 L/h/kg; AUC(0-t) ([2]; PO (PEG400) 10 mg/kg): 0.153 µg·h/mL; Cmax ([2]; PO (PEG400) 10 mg/kg): 0.085 µg/mL; AUC(0-t) ([2]; PO (PEG400) 50 mg/kg): 1.85 µg·h/mL; Cmax ([2]; PO (PEG400) 50 mg/kg): 1.63 µg/mL; F ([2]; PO (PEG400) 10 mg/kg): 6.05 +/− 3.56%; F ([2]; PO (PEG400) 50 mg/kg): 14.6 +/− 12^ %; solubility thermodynamic at 72 h (HT EQ solubility assay; [4]): < 5 µM; solubility thermodynamic at 72 h (HT EQ solubility assay; [5]): < 5 µM; solubility thermodynamic at 24 h (HT EQ solubility assay; [6]): 277 µM (≈ 138 µg/mL); solubility thermodynamic at 24 h (HT EQ solubility assay; [7]): 46.8 µM (≈ 23.4 µg/mL); solubility [3]: > 33.9 mg/mL
4 | Cc1c(C(=O)C(=O)NC2(c3cn[nH]n3)CC(F)(F)C2)c(Cl)n(C)c1C(=O)Nc1ccc(F)c(Br)c1 [Compound 40] | 0.004 µM | 6.6 µM | 
5 | Cc1c(C(=O)C(=O)NC2(c3cn[nH]n3)CC(F)(F)C2)c(Br)n(C)c1C(=O)Nc1ccc(F)c(Cl)c1 [Compound 41] | 0.002 µM | 7.2 µM | 
6 | Cc1c(C(=O)C(=O)NC2(c3cn[nH]n3)CC(F)(F)C2)c(F)c(C(=O)Nc2ccc(F)c(C#N)c2)n1C [Compound 42] | 0.002 µM | > 50 µM | 
7 | Cn1cc(C(=O)C(=O)NC2(c3ncc[nH]3)CC(F)(F)C2)cc1C(=O)Nc1ccc(F)c(C#N)c1 [Compound 43] | 0.315 µM | 6.6 µM | 
8 | Cc1c(C(=O)C(=O)NC(CC(F)(F)F)c2cn[nH]n2)c(C)n(C)c1C(=O)Nc1ccc(F)c(C#N)c1 (centres unmarked) [Compound 44RS] | 0.004 µM | > 50 µM | 
9 | Cc1c(C(=O)C(=O)NC2(c3cn[nH]n3)CC(F)(F)C2)cc(C(=O)Nc2ccc(F)c(C#N)c2)n1C [Compound 45] | 0.009 µM | > 50 µM | 
10 | Cc1c(C(=O)C(=O)NC2(c3cn[nH]n3)CC(F)(F)C2)cn(C)c1C(=O)Nc1ccc(F)c(C#N)c1F [Compound 46] | 0.011 µM | > 50 µM | 
11 | Cn1c(C#N)c(C(=O)C(=O)NC2(c3cn[nH]n3)CC(F)(F)C2)c(F)c1C(=O)Nc1ccc(F)c(C#N)c1 [Compound 50] | 1.28 µM | > 50 µM | 
12 | Cc1c(C(=O)C(=O)NC(C)(c2cn[nH]n2)C(F)(F)F)cn(C)c1C(=O)Nc1ccc(F)c(C#N)c1 (centres unmarked) [Compound 51] | 0.013 µM | > 50 µM | 
13 | Cn1c(C(=O)Nc2ccc(F)c(C#N)c2)c(F)c(C(=O)C(=O)NC2(c3cn[nH]n3)CC(F)(F)C2)c1C1CC1 [Compound 52] | 0.009 µM | > 40.6 µM | 
14 | Cc1c(C(=O)C(=O)NC2(c3cn[nH]n3)CC(F)(F)C2)cn(C)c1C(=O)Nc1ccnc(C(F)F)c1 [Compound 53] | 0.033 µM | > 50 µM | 
15 | Cc1c(C(=O)C(=O)NC2(c3cn[nH]n3)CC(F)(F)C2)c(C2CC2)n(C)c1C(=O)Nc1ccc(F)c(Cl)c1 [Compound 54] | 0.003 µM | 26.3 µM | 
16 | Cc1c(C(=O)C(=O)NC2(c3cn[nH]n3)CC(F)(F)C2)c(C#N)n(C)c1C(=O)Nc1ccc(F)c(Cl)c1 [Compound 55] | 0.809 µM | > 50 µM | 
17 | Cn1cc(C(=O)C(=O)NC2(c3c[nH]cn3)CC(F)(F)C2)cc1C(=O)Nc1ccc(F)c(C#N)c1 [Compound 56] | 0.044 µM | 20 µM | 
18 | Cc1c(C(=O)C(=O)N[C@]2(c3cn[nH]n3)C[C@H](F)C2)cn(C)c1C(=O)Nc1ccc(F)c(C#N)c1 [Compound 57cis] | 0.012 µM | > 50 µM | 
19 | Cc1c(C(=O)C(=O)N[C@]2(c3cn[nH]n3)C[C@@H](F)C2)cn(C)c1C(=O)Nc1ccc(F)c(C#N)c1 [Compound 57trans] | 0.007 µM | > 50 µM | 
20 | Cc1c(C(=O)C(=O)N[C@]2(c3cn[nH]n3)C[C@H](O)C2)cn(C)c1C(=O)Nc1ccc(F)c(C#N)c1 [Compound 58cis] | 0.09 µM | > 50 µM | 
21 | Cc1c(C(=O)C(=O)N[C@]2(c3cn[nH]n3)C[C@@H](O)C2)cn(C)c1C(=O)Nc1ccc(F)c(C#N)c1 [Compound 58trans] | 0.088 µM | > 50 µM | 
22 | Cc1cc(NC(=O)c2cc(C(=O)C(=O)NCc3cn[nH]n3)cn2C)ccc1F [Ref. 59, reference compound] | 0.583 µM | > 50 µM | 

Reference: patent US11096931B2, “Amide derivatives useful in the treatment of HBV infection or HBV-induced diseases” (Janssen Sciences Ireland Unlimited Company, priority 2019, dated 2021)
